What all share (assay type): functional
The subject of one assay is Klebsiella pneumoniae. The assay can be described thus: Antibacterial activity against Klebsiella pneumoniae ATCC 13883.
The next assay has as its system Escherichia coli. The assay can be described thus: Antibacterial activity against Escherichia coli ATCC 10536.
The subject of another assay is Staphylococcus aureus. The experiment in a line: Antibacterial activity against Staphylococcus aureus ATCC 6538.
A further assay has as its system Bacillus subtilis. The experiment in a line: Antibacterial activity against Bacillus subtilis ATCC 6633.
The next assay relates to Aspergillus niger. The experiment in a line: Antifungal activity against Aspergillus niger NRRL 530.
In the next assay the test system is Candida albicans. The assay can be described thus: Antifungal activity against Candida albicans ATCC 10231.

A word on the MIC: it is the lowest concentration found to suppress growth. Read a low MIC as inhibition by little substance.

Converted amounts (≈) assume the structure as drawn.

Take `COc1cc(C(C)C)c2cc(C)c(O)c3c2c1C(=O)O3`: the MIC in the assay with Klebsiella pneumoniae is more than 1000 µg/mL; with Escherichia coli, more than 1000 µg/mL; against Staphylococcus aureus it was 300 µg/mL (≈ 1100 µM); against Bacillus subtilis, 350 µg/mL (≈ 1290 µM); in the assay on Aspergillus niger, 250 µg/mL (≈ 918 µM); in the assay on Candida albicans, 225 µg/mL (≈ 826 µM).
Consider `COc1cc(C(C)C)c2cc(C)c(OC)c3c2c1C(=O)O3`, for which the minimal inhibitory concentration (MIC) was more than 1000 µg/mL with Klebsiella pneumoniae; more than 1000 µg/mL in the assay on Escherichia coli; 275 µg/mL (≈ 960 µM) with Staphylococcus aureus; 250 µg/mL (≈ 873 µM) in the assay on Bacillus subtilis; 200 µg/mL (≈ 699 µM) with Aspergillus niger; 175 µg/mL (≈ 611 µM) against Candida albicans.
